Measured values published in paper PMC548150, “Reversal of a full-length mutant huntingtin neuronal cell phenotype by chemical inhibitors of polyglutamine-mediated aggregation” (BMC Neuroscience, 2005).
“And” between values parts separate entries of the source, which are not always exact repeats. Equal entries are not always repeated. “Also recorded” adds a separate entry of the source. Where two headings read alike, the source gives them in different places. Values belong to the compound of their own block, whether it stands above or below them.

How the values were obtained:
[1] = biological target: T1, Q58-htn 1–171 amino terminal fragment (GST-Q58-Htn cleaved by thrombin) (Homo sapiens, UniProt P42858, INS38QQQQQQQQQQQQQQQQQQQQQQQQQQQQQQQQQQQQQ); assay: in vitro aggregation of amino-terminal mutant huntingtin fragment (filter retardation dot blot); format: biochemical
T1 construct: the amino terminal fragment 1–171 of mutant huntingtin; GST (N, cleaved yes); made in house; host or cells: E. coli BL21 (pGEX-2TK vector)
Experimental: In our primary screen (Figure 1A), GST-Q58-Htn (20 μg/ml) was mixed with thrombin (0.5 unit/μg GST-Q58-Htn) and immediately dispensed into a 96-well PCR plate containing compounds diluted to a final concentration of 100 μM. Incubation was continued for 24 hours at room temperature to allow aggregate formation. The aggregation was stopped by 2% SDS/10 mM 2-mercaptoethanol followed by boiling for 5 minutes. The mixture was filtered through a cellulose acetate membrane by using a 96-well ELIFA dot blot apparatus. The aggregates retained on the membrane were detected and quantified by immunoblotting and subsequent image analysis. Congo Red, a known huntingtin aggregation inhibitor, was used as the positive control.
A recombinant pGEX-2TK expression vector with cDNA fragment encoding amino terminal 171 amino acids of human huntingtin with a polyglutamine tract of 58 was used to prepare the GST-Q58-htn fusion protein. The GST-Q58-htn was overexpressed in BL21 cells and purified by affinity chromatography over glutathione-sepharose 4B beads (Amersham Pharmacia Biotech). The purified proteins were stored at concentration of 2.0 mg/ml at -80°C.
For primary screening of the chemical library, 1 μl of 4.0 mM small compound stock, diluted from the original plates, was placed in wells of 96-well plates. The fusion protein, GST-Q58-Htn was mixed with thrombin (0.5 unit/1 μg protein) at a concentration of 20 μg/ml in a buffer of 50 mM Tris-HCl, pH 8.0, 100 mM NaCl, 2.5 mM CaCl2, 1.0 mM EDTA. The mixture was immediately distributed into the 96-well plates containing diluted compounds at 40 μl/well and mixed well. The final concentration of the small compounds was 100 μM. After 24 hours incubation at room temperature, the reaction was stopped by adding 10 μl of 10% SDS/50 mM 2-mercaptoethanol to each well followed by boiling in a PCR machine for 5 minutes. The mixture from each well was filtered through a cellulose acetate membrane ((0.2 μm, GE Osmonics labstore, Minnetonka MN) by using a 96-well ELIFA (Pierce Biotech). The aggregates retained on the membrane were detected by a specific anti-huntingtin antibody, HP1 (diluted 1:1000), followed by incubation with peroxidase conjugated anti-rabbit antibody (diluted 1:10,000, Sigma). Signals from SDS insoluble aggregates were scanned and quantified by using ImageMaster Totalab image analysis software (Amersham Pharmacia Biotech). In the secondary screening, all steps were the same except the final concentration of compound in each well was reduced to 10 μM and the GST-Q58-Htn/thrombin mixture was preincubated for 45-minutes at room temperature and clarified by centrifugation at 28,000 × g for 30 minutes before being added to the test wells. For IC50 determinations, the in vitro aggregation assay and signal quantification were performed as in the second screening but varying the final concentration of input drug. The data for each inhibitor were obtained from at least two independent experiments in which every sample was analyzed in triplicate with Prism 3.0 software (Graphpad Software, Inc., San Diego, CA).

[2] = tested on: HEK 293T cells expressing androgen receptor with 112 glutamines; conditions: cited from earlier work
[3] = tested on: ST111/111 striatal cells (Hdh^Q111/Q111, full-length mutant huntingtin); assay: striatal cell line assay: huntingtin localization phenotype (AP229 immunostaining, confocal); format: cell-based, mouse; conditions: for Percentage of ST111/111 cells showing cytoplasmic/nuclear huntingtin localization comparable to wild-type ST7/7 cells: 30 min at 33°C, mean ± SD of 5–10 fields; for reversal of the mutant huntingtin localization phenotype (in words): 0.5–50 μM tested
Description: To test the hypothesis that compounds, which inhibit the aggregation-promoting property of amino-terminal mutant huntingtin will also rescue effects of full-length mutant huntingtin, we tested the top six inhibitors in a striatal cell-based assay. Mutant Hdh^Q111/Q111 and wild-type Hdh^Q7/Q7 striatal cell lines, […], which have been prepared by transformation with a tsSV40 vector, can be propagated in culture and used for cytological and biochemical comparisons. These cells express full-length mutant or wild-type huntingtin, respectively, with no evidence of truncated amino-terminal fragments, no formation of polyglutamine aggregates and no cell death-producing toxicity. However, like the striatal neurons of Hdh^Q111/Q111 knock-in mice, the ST111/111 cells show nuclear staining of huntingtin when tested with an amino-terminal huntingtin antibody that is sensitive to the conformation of the full-length protein (Figure 5A). By contrast, ST7/7 cells expressing wild type huntingtin show both nuclear and cytoplasmic immunostaining with the same huntingtin antibody (Figure 5A).
Conditionally immortalized wild-type Hdh^Q7/Q7 striatal neuronal progenitor cells (ST7/7) expressing endogenous normal huntingtin, and homozygous Hdh^Q111/Q111 striatal neuronal progenitor cells (ST111/111), expressing endogenous mutant huntingtin with 111-glutamines, have been described previously. The striatal cell lines were grown at 33°C in Dulbecco's modified Eagle's medium (DMEM) supplemented with 10 % fetal bovine serum (FBS), 1% nonessential aminoacids, 2 mM L-glutamine and 400 μg/ml G418 (Geneticin (GIBCO-BRL, Life Technologies, Gaithersburg, MD).
(§1) In the immunofluorescence and confocal analysis experiment, wild-type ST7/7 and homozygous mutant ST111/111 cells, grown to confluence on glass coverslips, were treated with 6 different drugs at four different concentrations (0.5, 5, 10 or 50 μM) for 30 min at 33°C. After the treatment the drugs were removed and the cells washed twice in PBS. The cells were then fixed by incubation in 4% formaldehyde for 15 min, permeabilized by 0.1% Triton X-100 for 5 min and incubated for 30 min with blocking solution (1% bovine albumin in PBS). Coverslips were then incubated in primary antibody (AP229 1:500 dilution) for 2 h at room temperature and washed three times in PBS before a further 1 h in blocking solution containing the secondary antibody (goat anti-rabbit Cy3, Jackson ImmunoResearch, West Grove, PA. USA). After three washes in PBS coverslips were mounted onto glass slides with Vectashield (Burlingame, CA. USA) and the images were analyzed with a laser confocal microscope (Bio-Rad, Hercules, CA. USA) using 20 × objective. Cell death was quantified by scoring the percentage of cells with apoptotic nuclear morphology, i.e. condensed or fragmented nuclei, under the confocal microscope. In each case five to ten randomly selected fields were counted, comprising at least 200 cells, and each experiment was repeated 3 times.

[4] = tested on: hippocampal slice cultures from the R6/2 mouse; design: method as in PMID 12891671; conditions: 30 μM; cited from earlier work
[5] = tested on: ST111/111 striatal cells; format: cell-based; conditions: for percentage of dead cells: mouse, 30 min
Experimental: as §1, with “After” for “In the immunofluorescence and confocal analysis experiment, wild-type ST7/7 and homozygous mutant ST111/111 cells, grown to confluence on glass coverslips, were treated with 6 different drugs at four different concentrations (0.5, 5, 10 or 50 μM) for 30 min at 33°C. After”

[6] = GST-Q58-Htn 20 μg/ml pre-incubated with thrombin, 24 h room temperature, average of at least two independent experiments, read-out: IC50 (half-maximal inhibition) of Q58-Htn aggregation

T1 sequence (P42858 with tags, fused parts or gaps with the stated changes limits assumed): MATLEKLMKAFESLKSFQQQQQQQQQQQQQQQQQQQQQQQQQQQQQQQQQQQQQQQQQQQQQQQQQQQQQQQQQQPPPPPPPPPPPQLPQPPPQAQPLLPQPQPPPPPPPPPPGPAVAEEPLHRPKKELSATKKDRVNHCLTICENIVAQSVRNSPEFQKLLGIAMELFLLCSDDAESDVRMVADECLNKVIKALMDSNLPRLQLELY

Compound: Tyrothricin
IC50 [1, 6]: 14.7 µM
effect on caspase 3 activation [2]: blocked caspase 3 activation
toxicity in the HEK 293T assay [2]: showed toxicity

IC50 [1, 6]: < 15 µM and 10.5 µM
Compound: O=C1c2c(O)cccc2Cc2cccc(O)c21 [Anthralin]
Percentage of ST111/111 cells showing cytoplasmic/nuclear huntingtin localization comparable to wild-type ST7/7 cells ([3]; 0.5 μM): 4.6 ± 7.6%
Percentage of ST111/111 cells showing cytoplasmic/nuclear huntingtin localization comparable to wild-type ST7/7 cells ([3]; 5 μM): 6.6 ± 9.7%
Percentage of ST111/111 cells showing cytoplasmic/nuclear huntingtin localization comparable to wild-type ST7/7 cells ([3]; 10 μM): 9.6 ± 12.1%
Percentage of ST111/111 cells showing cytoplasmic/nuclear huntingtin localization comparable to wild-type ST7/7 cells ([3]; 50 μM): 11.8 ± 14.4%
reversal of the mutant huntingtin localization phenotype (in words) [3]: little effect; also recorded: not effective

IC50 [1, 6]: 43 µM
Compound: CN(C)c1ccc(O)c2c1C[C@H]1C[C@H]3[C@H](N(C)C)C(O)=C(C(N)=O)C(=O)[C@@]3(O)C(O)=C1C2=O [minocycline]
effect on huntingtin exon 1 aggregation [4]: inhibitory effect

Compound: Cc1cc2c(C(C)C)c(O)c(O)c(C=O)c2c(O)c1-c1c(C)cc2c(C(C)C)c(O)c(O)c(C=O)c2c1O [Gossypol-acetic acid]
Percentage of ST111/111 cells showing cytoplasmic/nuclear huntingtin localization comparable to wild-type ST7/7 cells ([3]; 0.5 μM): 0%
Percentage of ST111/111 cells showing cytoplasmic/nuclear huntingtin localization comparable to wild-type ST7/7 cells ([3]; 5 μM): 4.5 ± 4.3%
Percentage of ST111/111 cells showing cytoplasmic/nuclear huntingtin localization comparable to wild-type ST7/7 cells ([3]; 10 μM): 3.5 ± 3.5%
Percentage of ST111/111 cells showing cytoplasmic/nuclear huntingtin localization comparable to wild-type ST7/7 cells ([3]; 50 μM): 15.9 ± 11.1%
Percentage of ST111/111 cells showing cytoplasmic/nuclear huntingtin localization comparable to wild-type ST7/7 cells ([3]; 50 μM, listed as Gossypol acetic acid complex): 15%
reversal of the mutant huntingtin localization phenotype (in words) [3]: not effective
reversal of the mutant huntingtin localization phenotype (in words) ([3]; listed as Gossypol acetic acid complex): less effective
IC50 [1]: < 6 µM and < 15 µM and 0.65 µM
cell toxicity (in words) ([5]; tested up to 50 μM): no toxicity

inhibition of Q58-Htn aggregation ([1]; 10 μM, positive control): completely inhibit
Compound: Nc1c(/N=N/c2ccc(-c3ccc(/N=N/c4cc(S(=O)(=O)O)c5ccccc5c4N)cc3)cc2)cc(S(=O)(=O)O)c2ccccc12 [Congo Red]

Compound: CC(C)=CCC[C@]1(C)C=Cc2c(O)c3c(c(CC=C(C)C)c2O1)O[C@]12C(=C[C@@H]4C[C@H]1C(C)(C)O[C@@]2(C/C=C(/C)C(=O)O)C4=O)C3=O [Gambogic acid]
Percentage of ST111/111 cells showing cytoplasmic/nuclear huntingtin localization comparable to wild-type ST7/7 cells ([3]; 0.5 μM): 1 ± 2.6%
Percentage of ST111/111 cells showing cytoplasmic/nuclear huntingtin localization comparable to wild-type ST7/7 cells ([3]; 5 μM): 0%
reversal of the mutant huntingtin localization phenotype (in words) [3]: not effective
IC50 [1, 6]: < 6 µM and < 15 µM and 0.87 µM
residual aggregate formed ([1]; at the maximum concentration of the dose response (0.01 μM to 500 μM)): approximately 20%
effect on caspase 3 activation [2]: blocked caspase 3 activation
toxicity in the HEK 293T assay [2]: showed toxicity

Compound: O=C1C=CC(=O)c2c(O)cccc21 [Juglone]
Percentage of ST111/111 cells showing cytoplasmic/nuclear huntingtin localization comparable to wild-type ST7/7 cells ([3]; 0.5 μM): 10.4 ± 12.4%
Percentage of ST111/111 cells showing cytoplasmic/nuclear huntingtin localization comparable to wild-type ST7/7 cells ([3]; 5 μM): 37.9 ± 19.9%
Percentage of ST111/111 cells showing cytoplasmic/nuclear huntingtin localization comparable to wild-type ST7/7 cells ([3]; 10 μM): 68% and 68.8 ± 18.4%
reversal of the mutant huntingtin localization phenotype (in words) [3]: reversed the mutant phenotype in a dose-dependent manner; also recorded: effective
IC50 [1, 6]: < 6 µM and < 15 µM and 2.67 µM

Compound: C[n+]1cc2c3c(ccc2c2ccc4cc5c(cc4c21)OCO5)OCO3 [Sanguinarine nitrate]
Percentage of ST111/111 cells showing cytoplasmic/nuclear huntingtin localization comparable to wild-type ST7/7 cells ([3]; 0.5 μM): 0%
Percentage of ST111/111 cells showing cytoplasmic/nuclear huntingtin localization comparable to wild-type ST7/7 cells ([3]; 5 μM): 3.7 ± 5.2%
Percentage of ST111/111 cells showing cytoplasmic/nuclear huntingtin localization comparable to wild-type ST7/7 cells ([3]; 10 μM): 0%
reversal of the mutant huntingtin localization phenotype (in words) [3]: little effect
reversal of the mutant huntingtin localization phenotype (in words) ([3]; listed as sanguinarine): not effective
IC50 [1, 6]: < 6 µM and < 15 µM and 5.7 µM
percentage of dead cells ([5]; 0.5 μM): 4.3%
percentage of dead cells ([5]; 5 μM): 5.5%
percentage of dead cells ([5]; 10 μM): 22.5%
effect on caspase 3 activation [2]: blocked caspase 3 activation

IC50 [1, 6]: 14.9 µM
Compound: N=C1C=CC(=C(c2ccc(N)cc2)c2ccc(N)cc2)C=C1 [Pararosaniline pamoate]

IC50 [1, 6]: 14.8 µM
Compound: C=C1c2c(Cl)ccc(O)c2C(=O)C2=C(O)[C@]3(O)C(=O)C(C(N)=O)=C(O)[C@@H](N(C)C)[C@@H]3[C@@H](O)[C@H]12 [Meclocycline sulfosalicylate]

Compound: CO[C@H]1C[C@H](O[C@@H]2/C(C)=C/C[C@@H]3C[C@@H](C[C@]4(CC[C@H](C)[C@@H](C5CCCCC5)O4)O3)OC(=O)[C@@H]3C=C(C)/C(=N/O)[C@H]4OC/C(=C\C=C\[C@@H]2C)[C@]43O)O[C@@H](C)[C@@H]1O [Selamectin]
IC50 [1]: 12.4 µM
